What was measured:
[1] = target: T1, PKCα (Homo sapiens, UniProt P17252); experiment: PMA mediated PKCα sub-cellular translocation, measured by kinase activity after photocleavable antibody isolation; assay type: cell-based; conditions: cultured HeLa cells, 200 nM PMA for 5 min, detergent fractionated; based on kinase activity of isolated PKCα; n=4
T1 construct: isolate and photo-release endogenous PKCa from the undiluted detergent fractionated HeLa cell extracts; endogenous in cells; host or cells: HeLa (ATCC)
Description: FIG. 20. Phorbol ester (PMA) mediated protein kinase Cα (PKCα) sub-cellular translocation as measured by functional activity following isolation with photocleavable antibodies. Cultured HeLa cells were stimulated with 200 nM PMA for 5 min and detergent fractionated into the cytosol and membrane compartments prior to isolation and purification with the photocleavable antibodies.
Cultured HeLa cells (ATCC; Manassas, Va.) were stimulated for 5 min with 200 nM Phorbol-12-Myristate-13-Acetate (PMA; EMD Biosciences, Inc., San Diego, Calif.) and subsequently detergent fractionated into sub-cellular compartments according to reported procedures [Ramsby et al. (1994) Electrophoresis 15, 265-277; Ramsby & Makowski. (1999) Methods Mol Biol 112, 53-66; Chiang et al. (2000) J Biochem Biophys Methods 46, 53-68]. PMA is a potent activator of PKCα and is well known to cause translocation of the kinase from the cytosolic to the membrane sub-cellular compartments [Ross & Joyner. (1997) Endothelium 5, 321-332; Bazan & Rapoport. (1996) JPharmacol Toxicol Methods 36, 87-95; Yazlovitskaya & Melnykovych. (1995) Cancer Lett 88, 179-183]. […]

[2] = target: T2, MDM2 (Homo sapiens, UniProt Q00987); experiment: p53-MDM interaction assay, complexes pre-formed before contact photo-transfer; assay type: binding; conditions: complex formed in solution, captured on beads, contact photo-transferred
T2 construct: polyhistidine (C); made in house; host or cells: rabbit reticulocyte lysate, cell-free (MDM2)
Description: All steps were performed at +4° C. or on an ice water bath and all reagents and samples were also kept under these conditions during the procedure. […] To facilitate addition of small bead volumes to the samples, the beads were initially prepared to a 10% (v/v) bead suspension with 5 mM DTT in PBS. The samples, now 80 μL each, were then mixed with 10 μL of the 10% (v/v) bead suspension corresponding to addition of 1 μL packed bead volume. After capture on the NeutrAvidin beads for 1 hr, beads were washed by mixing 3× briefly (briefly=5 sec vortex mix) in 400 bead volumes per wash of PBS pH 7.5 and 5 mM DTT. The washing procedure was performed in batch mode using 0.45 micron pore size, PVDF membrane, micro-centrifuge Filtration Devices to facilitate manipulation of the small volumes of affinity matrix (˜100 micron beads) and exchange the buffers (Ultrafree-MC Durapore Micro-centrifuge Filtration Devices, 400 μL capacity; Millipore, Billerica, Mass.). Prior to contact photo-transfer of the captured and isolated proteins, the washed pellet of 1 μL of NeutrAvidin agarose beads was suspended in a final volume of 50 μL of 50% glycerol and 5 mM DTT in PBS thereby resulting in a 2% (v/v) bead suspension.

T2 sequence (Q00987 whole entry): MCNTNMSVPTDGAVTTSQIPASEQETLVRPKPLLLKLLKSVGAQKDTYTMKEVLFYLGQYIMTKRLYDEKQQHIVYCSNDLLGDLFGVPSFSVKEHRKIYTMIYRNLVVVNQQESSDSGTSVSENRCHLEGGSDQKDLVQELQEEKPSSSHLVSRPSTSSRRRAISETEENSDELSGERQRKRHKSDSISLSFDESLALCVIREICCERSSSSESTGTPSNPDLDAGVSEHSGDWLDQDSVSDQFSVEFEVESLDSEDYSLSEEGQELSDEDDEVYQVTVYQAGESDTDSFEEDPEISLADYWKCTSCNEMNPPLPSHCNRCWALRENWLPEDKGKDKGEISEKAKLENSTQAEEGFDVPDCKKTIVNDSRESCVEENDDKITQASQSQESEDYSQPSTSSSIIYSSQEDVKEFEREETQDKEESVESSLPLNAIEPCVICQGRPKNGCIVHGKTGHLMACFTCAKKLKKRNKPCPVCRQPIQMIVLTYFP

| binding of cell-free expressed BODIPY-FL p53 probe to MDM bait [2] | Compound | PKCα distribution, cytosol [1] [%] | PKCα distribution, membrane [1] [%] |
| --- | --- | --- | --- |
| – | CCCCCCCCCCCCCC(=O)O[C@@H]1[C@@H](C)[C@@]2(O)[C@@H](C=C(CO)C[C@]3(O)C(=O)C(C)=C[C@@H]23)[C@@H]2C(C)(C)[C@]12OC(C)=O [PMA, Phorbol-12-Myristate-13-Acetate] | 16±4 | 84±3 |
| selective binding | p53 probe: cell-free expressed p53 labeled only with BODIPY-FL using BODIPY-FL-tRNA COMPLETE | – | – |
